Measurements from PubChem BioAssay AID248 (DTP/NCI, 2004).
Inconclusive results and toxic doses are left out. No stated cut-off is given here; in the data, active means T/C of 150% or more; inactive means T/C below 125%.

System: L1210 leukemia ip in BDF1 mice, survival T/C
Assay: NCI In Vivo Anticancer Drug Screen. Data for tumor model L1210 Leukemia (intraperitoneal) in B6D2F1 (BDF1) mice
Settings: endpoint: mean survival time, higher = longer survival
How it was run: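 Tumor was transplanted into mice, which were then dosed with test compound or vehicle alone. Survival was recorded for each group, and the treated figure was expressed relative to the control figure.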

[1] = dose: 12.5 mg/kg/injection, schedule: Q04DX003 (ip), vehicle: saline
[2] = dose: 25.0 mg/kg/injection, schedule: Q04DX003 (ip), vehicle: saline
[3] = dose: 100.0 mg/kg/injection, schedule: Q01DX009 (ip), vehicle: Klucel (hydroxypropylcellulose) (HPC)
[4] = dose: 200.0 mg/kg/injection, schedule: Q01DX009 (ip), vehicle: Klucel (hydroxypropylcellulose) (HPC)
[5] = dose: 400.0 mg/kg/injection, schedule: Q01DX009 (ip), vehicle: Klucel (hydroxypropylcellulose) (HPC)
[6] = dose: 100.0 mg/kg/injection, schedule: Q04DX003 (ip), vehicle: Klucel (hydroxypropylcellulose) (HPC)
[7] = dose: 200.0 mg/kg/injection, schedule: Q04DX003 (ip), vehicle: Klucel (hydroxypropylcellulose) (HPC)
[8] = dose: 400.0 mg/kg/injection, schedule: Q04DX003 (ip), vehicle: Klucel (hydroxypropylcellulose) (HPC)
[9] = dose: 50.0 mg/kg/injection, schedule: Q01DX001 (ip), vehicle: other
[10] = dose: 100.0 mg/kg/injection, schedule: Q01DX001 (ip), vehicle: other
[11] = dose: 200.0 mg/kg/injection, schedule: Q01DX001 (ip), vehicle: other
[12] = dose: 50.0 mg/kg/injection, schedule: Q01DX001 (ip), vehicle: saline
[13] = dose: 100.0 mg/kg/injection, schedule: Q01DX001 (ip), vehicle: saline
[14] = dose: 200.0 mg/kg/injection, schedule: Q01DX001 (ip), vehicle: saline
[15] = dose: 400.0 mg/kg/injection, schedule: Q01DX001 (ip), vehicle: saline
[16] = dose: 25.0 mg/kg/injection, schedule: Q01DX009 (ip), vehicle: saline
[17] = dose: 50.0 mg/kg/injection, schedule: Q01DX009 (ip), vehicle: saline
[18] = dose: 100.0 mg/kg/injection, schedule: Q04DX003 (ip), vehicle: saline

Measured: T/C

[Cu+2].[NH-]C(CCC(N)=O)C(=O)O.[NH-]C(CCC(N)=O)C(=O)O (stereo unspecified)
inactive: dose: 6.25 mg/kg/injection, schedule: Q04DX003 (ip), vehicle: saline 96 % of control | [1] 91 % of control | [2] 100 % of control

C=CC(C)(O)CCC1C(=C)CCC2C(C)(C)CCCC12C (stereo unspecified)
inactive: [3] 100 % of control | [4] 100 % of control | [5] 95 % of control

CC1(C)CCC(=NNC(N)=S)CC1
inactive: dose: 5.0 mg/kg/injection, schedule: Q01DX001 (ip), vehicle: carboxymethylcellulose (CMC) 101 % of control | dose: 10.0 mg/kg/injection, schedule: Q01DX001 (ip), vehicle: carboxymethylcellulose (CMC) 97 % of control | dose: 20.0 mg/kg/injection, schedule: Q01DX001 (ip), vehicle: carboxymethylcellulose (CMC) 92 % of control | dose: 40.0 mg/kg/injection, schedule: Q01DX001 (ip), vehicle: carboxymethylcellulose (CMC) 92 % of control

Cc1ccc(CS)cc1
inactive: [3] 101 % of control | [6] 97 % of control | [4] 93 % of control | [7] 97 % of control | [8] 92 % of control

Cc1ccc(C(=O)CCCC(=O)c2ccc(C)cc2)cc1
inactive: [9] 103 % of control | [10] 91 % of control | [11] 97 % of control | dose: 400.0 mg/kg/injection, schedule: Q01DX001 (ip), vehicle: other 95 % of control

C/C(CCCCCCCCC#N)=N/Nc1ccc([N+](=O)[O-])cc1[N+](=O)[O-]
inactive: [6] 93 % of control | [7] 93 % of control | [8] 98 % of control

CCCCCCCC/C=C\CCCCCCCC(=O)OCC
inactive: dose: 100.0 mg/kg/injection, schedule: Q01DX001 (ip), vehicle: saline with Tween-80 98 % of control | dose: 200.0 mg/kg/injection, schedule: Q01DX001 (ip), vehicle: saline with Tween-80 107 % of control | dose: 400.0 mg/kg/injection, schedule: Q01DX001 (ip), vehicle: saline with Tween-80 95 % of control

Cc1cc(NC(=O)c2ccccc2)c(Cl)cc1N
inactive: dose: 50.0 mg/kg/injection, schedule: Q01DX009 (ip), vehicle: saline with Tween-80 105 % of control | dose: 50.0 mg/kg/injection, schedule: Q04DX003 (ip), vehicle: saline with Tween-80 94 % of control | dose: 100.0 mg/kg/injection, schedule: Q01DX009 (ip), vehicle: saline with Tween-80 98 % of control | dose: 100.0 mg/kg/injection, schedule: Q04DX003 (ip), vehicle: saline with Tween-80 98 % of control | dose: 200.0 mg/kg/injection, schedule: Q01DX009 (ip), vehicle: saline with Tween-80 93 % of control | dose: 200.0 mg/kg/injection, schedule: Q04DX003 (ip), vehicle: saline with Tween-80 93 % of control

O=C(CCCC(=O)N/N=C/c1ccccc1[N+](=O)[O-])N/N=C\c1ccccc1[N+](=O)[O-]
inactive: [12] 112 % of control | [13] 106 % of control | [14] 101 % of control | [15] 101 % of control

O=C(Cc1ccccc1)NCCCl
inactive: dose: 100.0 mg/kg/injection, schedule: Q04DX002 (ip), vehicle: saline with Tween-80 103 % of control | dose: 200.0 mg/kg/injection, schedule: Q04DX002 (ip), vehicle: saline with Tween-80 103 % of control | dose: 400.0 mg/kg/injection, schedule: Q04DX002 (ip), vehicle: saline with Tween-80 105 % of control

O=S(=O)(/C=C/c1ccc(Cl)cc1)c1ccccc1
inactive: [13] 102 % of control | dose: 100.0 mg/kg/injection, schedule: Q01DX009 (ip), vehicle: saline 91 % of control | [14] 104 % of control | dose: 200.0 mg/kg/injection, schedule: Q01DX009 (ip), vehicle: saline 96 % of control | [15] 102 % of control | dose: 400.0 mg/kg/injection, schedule: Q01DX009 (ip), vehicle: saline 94 % of control

Cc1cccc(C)c1NC(=S)N(C)C
inactive: [16] 101 % of control | [17] 103 % of control | [18] 95 % of control

C[n+]1ccc(Nc2ccc(NC(=O)c3ccc(N)cc3)cc2)cc1
inactive: dose: 12.5 mg/kg/injection, schedule: Q01DX009 (ip), vehicle: water 117 % of control | dose: 25.0 mg/kg/injection, schedule: Q01DX009 (ip), vehicle: water 107 % of control | dose: 50.0 mg/kg/injection, schedule: Q01DX009 (ip), vehicle: water 112 % of control

Nc1ncnc2c1ccn2C1CCC(CO)C1 (stereo unspecified)
inactive: [9] 108 % of control | [10] 103 % of control | [11] 101 % of control

CCOC(=O)c1ccc2ccccc2[n+]1C
inactive: dose: 75.0 mg/kg/injection, schedule: Q01DX001 (ip), vehicle: saline 89 % of control | dose: 150.0 mg/kg/injection, schedule: Q01DX001 (ip), vehicle: saline 94 % of control | dose: 300.0 mg/kg/injection, schedule: Q01DX001 (ip), vehicle: saline 91 % of control

CCN(Cc1ccccc1)C(=O)Nc1cccc(Cl)c1
inactive: dose: 100.0 mg/kg/injection, schedule: Q01DX009 (ip), vehicle: other 106 % of control | dose: 200.0 mg/kg/injection, schedule: Q01DX009 (ip), vehicle: other 108 % of control | dose: 400.0 mg/kg/injection, schedule: Q01DX009 (ip), vehicle: other 105 % of control

Nc1ncnc2nc(N=Nc3ccc(S(N)(=O)=O)cc3)[nH]c12
inactive: [6] 108 % of control | [7] 102 % of control | [8] 100 % of control

COc1cccc(C(=NC(=O)c2ccccc2)c2ccccc2)c1
inactive: [3] 100 % of control | [4] 97 % of control | [5] 91 % of control

CC1(C)CC(OP(=O)(CCl)OC2CC(C)(C)N(O)C(C)(C)C2)CC(C)(C)N1O
inactive: dose: 100.0 mg/kg/injection, schedule: Q04DX002 (ip), vehicle: water 97 % of control | dose: 200.0 mg/kg/injection, schedule: Q04DX002 (ip), vehicle: water 97 % of control

O=[N+]([O-])c1ccc(C[n+]2ccc3ccccc3c2)cc1
inactive: dose: 12.5 mg/kg/injection, schedule: Q01DX009 (ip), vehicle: saline 96 % of control | [1] 97 % of control | [16] 95 % of control | [2] 92 % of control | [17] 101 % of control | dose: 50.0 mg/kg/injection, schedule: Q04DX003 (ip), vehicle: saline 92 % of control

Nc1ccccc1C1OCCO1
inactive: dose: 50.0 mg/kg/injection, schedule: Q01DX001 (ip), vehicle: carboxymethylcellulose (CMC) 95 % of control | dose: 100.0 mg/kg/injection, schedule: Q01DX001 (ip), vehicle: carboxymethylcellulose (CMC) 95 % of control | dose: 200.0 mg/kg/injection, schedule: Q01DX001 (ip), vehicle: carboxymethylcellulose (CMC) 95 % of control | dose: 400.0 mg/kg/injection, schedule: Q01DX001 (ip), vehicle: carboxymethylcellulose (CMC) 101 % of control

COC(=O)Cc1ccc([N+](=O)[O-])cc1[N+](=O)[O-]
inactive: [18] 101 % of control | dose: 200.0 mg/kg/injection, schedule: Q04DX003 (ip), vehicle: saline 102 % of control | dose: 400.0 mg/kg/injection, schedule: Q04DX003 (ip), vehicle: saline 93 % of control

Cc1cc(C)c(O)c(N=O)c1.[Cu+2]
inactive: [12] 101 % of control | [13] 97 % of control | [14] 101 % of control | [15] 97 % of control

CC[N+]1(CC)CC[N+](CC)(CC)CC1 (tested in a mixture with another compound)
inactive: dose: 100.0 mg/kg/injection, schedule: Q04DX002 (ip), vehicle: saline 102 % of control | dose: 200.0 mg/kg/injection, schedule: Q04DX002 (ip), vehicle: saline 97 % of control | dose: 400.0 mg/kg/injection, schedule: Q04DX002 (ip), vehicle: saline 102 % of control

CN(C)c1ccc(/C=C/c2ccc3ccccc3n2)cc1
inactive: dose: 100.0 mg/kg/injection, schedule: Q01DX001 (ip), vehicle: Klucel (hydroxypropylcellulose) (HPC) 100 % of control | [3] 103 % of control | dose: 200.0 mg/kg/injection, schedule: Q01DX001 (ip), vehicle: Klucel (hydroxypropylcellulose) (HPC) 97 % of control | [4] 100 % of control | dose: 400.0 mg/kg/injection, schedule: Q01DX001 (ip), vehicle: Klucel (hydroxypropylcellulose) (HPC) 101 % of control | [5] 95 % of control

Cc1ccc(C(=O)c2ccc3c4c(cccc24)CC3)cc1
inactive: [6] 112 % of control | [7] 88 % of control | [8] 100 % of control
